In patent US9567301B2, “Pyrrol-1-yl benzoic acid derivatives useful as myc inhibitors” (Whitehead Institute for Biomedical Research, priority 2012, dated 2017):

Assays:
H2171 cells = assay: Cell viability assay (ATPlite), H2171; assay type: cell-based, human; conditions: cell viability, three days, ATPlite, NA: inactive under assay conditions
Protocol: (§1) This assay was used for the H2171 and MM1S cell data shown in Table 2, and for the Jurkat (an immortalized line of human T lymphocyte cells), Ly1 (OCI-Ly1 human non-Hodgkin lymphoma cell line), Ly4 (OCI-Ly4 human non-Hodgkin lymphoma cell line), H2172 (NCI-H2172 human non-small cell lung cancer cell line), and CA-46 (a human Burkitt's lymphoma cell line) cell data shown in Table 3 and FIG. 12. Cells were counted and adjusted to 60,000 cells/mL. Using a Biotek EL406, 50 μL of cells are media were distributed into 384 well white plates from Thermo. Immediately after plating, compound in DMSO was distributed to plates. For large plate sets, cells were returned to 37° C. incubator while not in use.
(§2) Compounds were added to plates using a 100 nL 384 well pin transfer manifold on a Janus workstation. Stocks were arrayed in 10 point quadruplicate dose response in DMSO stock in 384 well Greiner compound plates. After addition of compound, plates were incubated for three days in a 37° C. incubator.
(§3) Cell viability was read out using ATPlite from Perkin Elmer. Plates were removed from the incubator and brought to room temperature prior to use. Lyophilized powder was resuspended in lysis buffer and diluted 1:2 with DI water. 25 μL of this solution was added to each well using the Biotek liquid handler. Plates were sealed with adherent aluminum seals prior to vortexing and spinning down at 1000 g for 1 minute. Plates were incubated for 15 minutes at room temperature before signal was read on an Envision Plate Reader.

c-Myc/Max/Ebox DNA = c-Myc/Max/Ebox DNA (Homo sapiens, UniProt P01106); assay: c-Myc/Max/Ebox DNA AlphaScreen assay; assay type: binding; set-up: An exemplary assay uses full-length human c-Myc and Max proteins; his6 (cleaved yes); made in house; conditions: c-Myc/Max/Ebox DNA AlphaScreen; NA: inactive under assay conditions; read-out: Biochemical IC50
Sequence of c-Myc/Max/Ebox DNA (P01106 16-454): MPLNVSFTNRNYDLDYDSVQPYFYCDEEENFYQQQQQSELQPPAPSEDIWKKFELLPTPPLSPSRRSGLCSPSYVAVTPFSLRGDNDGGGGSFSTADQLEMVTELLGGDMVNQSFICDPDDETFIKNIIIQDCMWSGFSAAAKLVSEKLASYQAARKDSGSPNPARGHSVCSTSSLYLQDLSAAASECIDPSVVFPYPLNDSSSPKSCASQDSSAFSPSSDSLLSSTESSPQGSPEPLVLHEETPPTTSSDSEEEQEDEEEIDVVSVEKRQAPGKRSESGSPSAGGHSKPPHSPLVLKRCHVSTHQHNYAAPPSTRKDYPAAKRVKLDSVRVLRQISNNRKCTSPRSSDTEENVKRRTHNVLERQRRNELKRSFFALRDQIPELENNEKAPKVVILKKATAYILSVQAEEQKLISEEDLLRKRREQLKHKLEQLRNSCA
Protocol: This protocol was used to generate the biochemical data in Table 2 and FIG. 11. The primary AlphaScreen assay is amenable to 384-well and 1536-well plate formats for HTS. Human his6-c-Myc and his6-Max were used with biotinylated DNA containing a single Ebox sequence (biotin[…]) purchased from MWG Operon. Free c-Myc was generated from his6-c-Myc through thrombin cleavage of the his6 tag. For 384-well plate assays, 10 μL of a 2× solution of free c-Myc (25 nM final), Ni++-coated Acceptor Bead (25 μg/ml final), and biotinylated Ebox oligo (10 nM final) were added to 384-well plates with a Biotek EL406 liquid handler. 100 nL of compounds from stock plates were added by pin transfer using a Janus Workstation (PerkinElmer), allowing the compounds to interact with c-Myc prior to c-Myc binding with Max. In the current assay, DMSO was not allowed to exceed 2% v/v of the assay. 10 μl of 2× master mix containing streptavidin-coated donor beads (25 μg/ml final) and his6-Max (1.25 nM final) were added. AlphaScreen measurements were performed on an Envision 2104 (PerkinElmer) utilizing the manufacturer's protocol. The assay can also be performed in 1536-plate format with 8 μL total volume using two 4 μL additions (instead of […] and 10 μL respectively).
Assays are performed with minor modifications from the manufacturer's protocol (PerkinElmer). Both master mixes were made in room temperature assay buffer (50 mM HEPES, 150 mM NaCl, 0.2% w/v BSA, 0.02% w/v Tween20, 40 μg/ml glycogen, 500 μM DTT, pH 8.0, DTT and glycogen added fresh). Alpha beads were added to respective master solutions and wrapped in foil. All subsequent steps were performed in low light conditions. Solution 1: 2× solution of components with final concentrations of cMyc (25 nM), Ni-coated Acceptor Bead (25 μg/ml), and biotinylated Ebox oligo (10 nM). Solution 2: 2× solution of streptavidin-coated donor beads (25 μg/ml final) and his6-Max (1.25 nM final). […] Solution 1 were added to 384-well plate (AlphaPlate-384, PerkinElmer) with Biotek EL406 liquid handler and the plates were centrifuged at 1000 rpm for 1 minute. 100 nL of compounds from stock plates were added by pin transfer using a Janus Workstation. 10 μL Solution 2 were added with the liquid handler. Plates were sealed with foil to block light exposure and prevent evaporation. Plates were centrifuged at 1000 rpm for 1 minute followed by 2 hour incubation. AlphaScreen measurements were performed on an Envision 2104 utilizing the manufacturer's protocol. Excitation was at 680 nm for donor bead release of singlet oxygen and emission was read with a bandpass filter from 520-620 nm. Glycogen: Roche Diagnostics #10901393001. Plate 1536: Perkin Elmer, 6004350. Plate 384: Perkin Elmer, 6005350. Nickel-His Alpha Beads: 6760619R.

MM1S cells = assay: Cell viability assay (ATPlite), MM1S; assay type: cell-based, human; conditions: for EC50: cell viability, three days, ATPlite, NA: inactive under assay conditions
Protocol: as §1, §2, §3

| EC50 (H2171 cells; Homo sapiens, NCI-H2171, 72 h) | IC50 (c-Myc/Max/Ebox DNA) | EC50 (MM1S cells; Homo sapiens, MM1.S, 72 h) | EC50 (H2171 cells) | EC50 (MM1S cells) | SMILES | cellular activity/potency in cellular proliferation assay (MM1S cells; MM1.S, prodrug relative to free acid (FIG. 3, FIG. 4)) |
| --- | --- | --- | --- | --- | --- | --- |
| 76.3 µM | 81.5 µM | 208 µM |  |  | Cc1ccc(C)n1-c1ccc(C(=O)O)c(Cl)c1 [Compound 6] |  |
| 123 µM | 61.8 µM | 79.3 µM |  |  | Cc1ccc(-c2ccccc2)n1-c1ccc(O)c(C(=O)O)c1 [Compound 12] |  |
| 54.4 µM | 144 µM | 69.9 µM |  |  | CCOC(=O)c1ccc(-n2c(C)ccc2-c2ccccc2)cc1 [Compound 13] |  |
| 86.3 µM | 97.3 µM | 223 µM |  |  | COC(=O)c1ccccc1-n1c(C)ccc1C [Compound 14] |  |
| 89.1 µM | 96 µM | 75.3 µM |  |  | CCCOC(=O)c1ccc(-n2c(CCC(=O)O)ccc2-c2ccccc2)cc1O [Compound 21] |  |
| 73.4 µM | 124 µM | 71.7 µM |  |  | CCOC(=O)c1ccc(-n2c(CCC(=O)O)ccc2-c2cccs2)cc1O [Compound 22] |  |
| 64.9 µM | 81.6 µM | 58 µM |  |  | CCOC(=O)c1ccc(-n2c(CCC(=O)O)ccc2-c2ccc(Br)cc2)cc1O [Compound 23] |  |
| 166 µM | 116 µM | 83.2 µM |  |  | CCOC(=O)c1ccc(-n2c(CCC(=O)O)ccc2-c2ccc(OC)cc2)cc1O [Compound 24] |  |
| 101 µM | 139 µM | 78.3 µM |  |  | CCOC(=O)c1ccc(-n2c(CCC(=O)O)ccc2-c2ccccc2)cc1O [Compound 25] |  |
|  | 17.5 µM | 52.5 µM |  |  | Cc1ccc(C)n1-c1cc(C(=O)N/N=C/c2ccc3ccccc3n2)ccc1C(=O)O [Compound 90] |  |
| 144 µM | 15.1 µM |  |  |  | Cc1ccc(C)n1-c1cc(C(=O)N/N=C/c2cccc3ncccc23)ccc1C(=O)O [Compound 106] |  |
|  |  |  | 2.8 µM | 11 µM | CC(=O)OCOC(=O)c1ccc(-n2c(C)ccc2C)cc1O [Compound 113] |  |
|  |  | 450 µM |  |  | Cc1ccc(C)n1-c1ccccc1C(N)=O [Compound 133] |  |
| 215 µM | 94.7 µM |  |  |  | Cc1ccc(C)n1-c1cccc(C(=O)c2ccccc2)c1C(=O)O [Compound 136] |  |
| 268 µM |  | 148 µM |  |  | O=C(O)c1ccccc1-n1c2ccccc2c2ccccc21 [Compound 141] |  |
|  | 7.58 µM |  |  | 625 µM | Cc1ccc(C)n1-c1cc(C(=O)NN)ccc1C(=O)O [Compound 142] |  |
|  |  |  |  | 446 µM | CC(=O)OCOC(=O)c1ccc(-n2c(C)ccc2C)cc1O [Compound 144] |  |

More lines, now with the values behind:

| SMILES | EC50 (H2171 cells; Homo sapiens, NCI-H2171, 72 h) | IC50 (c-Myc/Max/Ebox DNA) | EC50 (MM1S cells; Homo sapiens, MM1.S, 72 h) | EC50 (H2171 cells) | EC50 (MM1S cells) | cellular activity/potency in cellular proliferation assay (MM1S cells; MM1.S, prodrug relative to free acid (FIG. 3, FIG. 4)) |
| --- | --- | --- | --- | --- | --- | --- |
| COC(=O)c1ccc(-n2cccc2)cc1O [Compound 9] | 229 µM |  | 127 µM |  |  |  |
| O=C(O)c1ccc(-n2cccc2)cc1O [Compound 16] | 104 µM | 165 µM | 130 µM |  |  |  |
| CC(=O)Oc1cc(-n2c(C)ccc2C)ccc1C(=O)O [Compound 66] | 67.9 µM |  | 3570 µM |  |  |  |
| COc1ccc(/C=N/NC(=O)c2ccc(C(=O)O)c(-n3c(C)ccc3C)c2)c(OC)c1 [Compound 85] | 97.3 µM | 37.9 µM |  |  |  |  |
| Cc1ccc(C)n1-c1cc(C(=O)N/N=C/c2ccc(N(C)C)cc2)ccc1C(=O)O [Compound 87] |  | 31.4 µM | 86.5 µM |  |  |  |
| Cc1ccc(C)n1-c1cc(C(=O)N/N=C/c2c(Cl)ncnc2Cl)ccc1C(=O)O [Compound 88] |  | 4.88 µM | 8080 µM |  |  |  |
| Cc1ccc(C)n1-c1cc(C(=O)N/N=C/c2cc(F)ccc2C(F)(F)F)ccc1C(=O)O [Compound 91] |  | 3.99 µM | 4260 µM |  |  |  |
| Cc1ccc(C)n1-c1cc(C(=O)N/N=C/c2cncnc2)ccc1C(=O)O [Compound 93] |  | 5.56 µM | 263 µM |  |  |  |
| Cc1ccc(C)n1-c1cc(C(=O)N/N=C/c2c[nH]c3cc(F)ccc23)ccc1C(=O)O [Compound 96] | 38.1 µM | 34.4 µM |  |  |  |  |
| Cc1cc(C)c2c(=O)c(/C=N/NC(=O)c3ccc(C(=O)O)c(-n4c(C)ccc4C)c3)coc2c1 [Compound 97] |  | 5.55 µM | 1040 µM |  |  |  |
| COc1ncc(/C=N/NC(=O)c2ccc(C(=O)O)c(-n3c(C)ccc3C)c2)c(OC)n1 [Compound 100] | 266 µM | 7.67 µM |  |  |  |  |
| Cc1ccc(C)n1-c1cc(C(=O)N/N=C/c2ccc3cccnc3n2)ccc1C(=O)O [Compound 105] |  | 2.97 µM | 118 µM |  |  |  |
| Cc1ccc(C)n1-c1cc(C(=O)N/N=C/c2cc(F)c(F)c(F)c2)ccc1C(=O)O [Compound 107] | 32.3 µM | 9.3 µM |  |  |  |  |
| CC(=O)OCOC(=O)c1ccc(C(=O)N/N=C/c2ccc(-c3nnn[nH]3)cc2)cc1-n1c(C)ccc1C [Compound 109] | 1.02 µM |  | 9.99 µM |  |  |  |
| CC(=O)OCOC(=O)c1ccc(C(=O)N/N=C/c2c(CO)cnc(C)c2O)cc1-n1c(C)ccc1C [Compound 111] | 2.4 µM |  | 21.8 µM |  |  |  |
| CC(=O)OCOC(=O)c1ccc(C(=O)N/N=C/c2ccc(S(=O)(=O)O)o2)cc1-n1c(C)ccc1C [Compound 112] | 1.04 µM |  | 9.25 µM |  |  |  |
| CC(=O)OCOC(=O)c1cccc(/C=N/NC(=O)c2ccc(C(=O)OCOC(C)=O)c(-n3c(C)ccc3C)c2)c1 [Compound 114] | 1.21 µM |  | 11.7 µM |  |  |  |
| CC(=O)OCOC(=O)c1ccc(C(=O)N/N=C/c2ccc3cccnc3n2)cc1-n1c(C)ccc1C [Compound 115] | 0.913 µM |  | 13.6 µM |  |  |  |
| Cc1ccc(C)n1-c1cc(C(=O)N/N=C\c2ccc(C(=O)O)s2)ccc1C(=O)O [Compound 122] | 174 µM | 0.492 µM |  |  |  |  |
| Cc1ccc(C)n1-c1cc(C(=O)N/N=C\c2ccc(S(=O)(=O)O)cc2)ccc1C(=O)O [Compound 123] | 96.4 µM | 0.291 µM |  |  |  |  |
| COc1cc(-n2c(C)ccc2C)c(Cl)cc1C(=O)O [Compound 131] | 3400 µM | 493 µM |  |  |  |  |
| Cc1ccc(C)n1-c1c(C(=O)O)cccc1[N+](=O)[O-] [Compound 132] | 310 µM |  | 647 µM |  |  |  |
| Cc1ccc(C)n1-c1cnccc1C(=O)O [Compound 135] |  | 6800 µM | 305 µM |  |  |  |
| Cc1c(C)c(C)n(-c2ccccc2C(=O)O)c1C [Compound 138] | 270 µM |  | 194 µM |  |  |  |
| Cc1ccc(C)n1-c1ccc(Cl)cc1C(=O)O [Compound 147] | 170 µM | 11.5 µM |  |  |  |  |
| CC(=O)OCOC(=O)c1ccccc1-n1ccnc1C [Compound 151] | 43.5 µM |  | 156 µM |  |  |  |
| Cc1ccc(C)n1-c1cc(C(=O)O)ccc1C(=O)O [Compound 157] |  |  | 11000 µM |  |  |  |
| CC(=O)OCOC(=O)c1ccccc1N1CCN(C)CC1 [Compound 159] | 84.1 µM |  | 209 µM |  |  |  |
| Cc1ccc(C)n1-c1ccc(C(=O)O)c([N+](=O)[O-])c1 [Compound 163] |  | 155 µM | 98.5 µM |  |  |  |
| CC(=O)OCOC(=O)c1cccc(/C=N/NC(=O)c2ccc(C(=O)OCOC(C)=O)c(-n3c(C)ccc3C)c2)c1 [acetomoxymethyl ester prodrug] |  |  |  |  |  | increases cellular potency |
